Reference: patent US9957251B2 (Takeda Pharmaceutical Company Limited, priority 2014, dated 2018)

Columns and labels:
CDK8/CycC = target: T1, CDK8/CycC (Homo sapiens, UniProt P49336); test: CDK8 inhibitory activity (TR-FRET, Kinase Tracer-236 displacement); assay type: binding; settings: 1 μM of the test compound; read-out: Percent inhibition of CDK8 activity (%)
T1 construct: purchased Carna Biosciences
In short: (§1)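 Binding assay measuring displacement of Kinase Tracer-236 (60 nM in the added mix) by compound, using Eu-cryptate anti-GST antibody with CDK8/CycC (84 ng/mL) or CDC2L6/CycC (87 ng/mL) solutions. After 1 h at room temperature, TR-FRET read at 615 and 665 nm (excitation 320 nm).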

CDK19 (CDC2L6/CycC) = target: T2, CDK19 (CDC2L6/CycC) (Homo sapiens, UniProt Q9BWU1); test: CDK19 inhibitory activity (TR-FRET, Kinase Tracer-236 displacement); assay type: binding; settings: 1 μM of the test compound; read-out: Percent inhibition of CDK19 activity (%)
T2 construct: purchased Carna Biosciences
T2 sequence (Q9BWU1 whole entry): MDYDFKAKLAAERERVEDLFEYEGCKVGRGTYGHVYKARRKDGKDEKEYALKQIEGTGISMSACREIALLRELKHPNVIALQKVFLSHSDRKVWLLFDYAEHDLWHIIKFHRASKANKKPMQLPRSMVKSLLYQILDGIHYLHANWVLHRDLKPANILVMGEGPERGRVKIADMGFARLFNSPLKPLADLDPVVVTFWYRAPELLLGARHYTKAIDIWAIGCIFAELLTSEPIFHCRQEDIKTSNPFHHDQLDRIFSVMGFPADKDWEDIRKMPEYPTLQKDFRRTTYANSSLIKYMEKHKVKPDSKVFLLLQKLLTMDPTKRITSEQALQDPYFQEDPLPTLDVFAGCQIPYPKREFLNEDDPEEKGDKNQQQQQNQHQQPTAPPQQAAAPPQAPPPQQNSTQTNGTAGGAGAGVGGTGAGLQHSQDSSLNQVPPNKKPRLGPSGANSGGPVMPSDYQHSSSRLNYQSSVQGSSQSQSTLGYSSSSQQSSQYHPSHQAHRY
T2 sequence (P24863 whole entry partner): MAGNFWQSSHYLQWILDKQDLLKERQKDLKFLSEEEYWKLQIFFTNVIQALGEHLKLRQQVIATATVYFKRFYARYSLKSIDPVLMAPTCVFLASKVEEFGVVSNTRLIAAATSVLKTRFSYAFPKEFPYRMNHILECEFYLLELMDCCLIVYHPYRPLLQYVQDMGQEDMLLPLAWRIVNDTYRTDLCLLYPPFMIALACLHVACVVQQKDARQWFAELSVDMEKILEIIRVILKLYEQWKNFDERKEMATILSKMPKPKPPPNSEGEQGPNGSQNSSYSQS
In short: as §1

[1] = system: human multiple myeloma RPMI8226 cells; test: Inhibitory activity against human multiple myeloma RPMI8226 cell growth (CellTiter-Glo); assay type: cell-based; settings: Homo sapiens, RPMI-8226, 192 h, 1 μM of the test compound, cultured for 8 days; read-out: Percent inhibition of RPMI8226 cell growth (%)
In short: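 RPMI8226 cells (300/well) cultured 1 day at 37 °C, 5% CO2, then given compound at 1 μM for 8 days. ATP luminescence (CellTiter-Glo) read; percent inhibition relative to 0.1% DMSO wells.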

T1 sequence (P49336 whole entry): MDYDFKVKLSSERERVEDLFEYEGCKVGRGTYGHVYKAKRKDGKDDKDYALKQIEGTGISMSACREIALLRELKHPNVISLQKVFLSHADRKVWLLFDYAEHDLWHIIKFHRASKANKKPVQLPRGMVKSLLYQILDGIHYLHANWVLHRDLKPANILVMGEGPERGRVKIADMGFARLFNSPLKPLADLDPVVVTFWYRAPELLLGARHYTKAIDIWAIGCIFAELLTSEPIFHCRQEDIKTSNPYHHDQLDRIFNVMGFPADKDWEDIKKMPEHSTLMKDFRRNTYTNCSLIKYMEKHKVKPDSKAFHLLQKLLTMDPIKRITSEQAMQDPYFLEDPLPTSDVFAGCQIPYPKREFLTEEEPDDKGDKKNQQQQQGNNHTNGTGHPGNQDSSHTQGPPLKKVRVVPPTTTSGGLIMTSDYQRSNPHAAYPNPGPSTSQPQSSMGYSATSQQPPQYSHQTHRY
T1 sequence (P24863 whole entry partner): as the sequence (P24863 whole entry partner) above

Row | Structure (SMILES) | inhibition at 1 µM (CDK8/CycC) [%] | inhibition at 1 µM (CDK19 (CDC2L6/CycC)) [%] | inhibition at 1 µM [1] [%]
1 | COc1ncc(-c2ccncc2/C=C/C(=O)Nc2ccc(CN3CCOCC3)cc2F)s1 [Example 250, (2E)-N-(2-Fluoro-4-(morpholin-4-ylmethyl)phenyl)-3-(4-(2-methoxy-1,3-thiazol-5-yl)pyridin-3-yl)acrylamide] | 99 | 96 | 63
2 | Cn1cc(-c2ccncc2/C=C/C(=O)Nc2ccc(CN3CCC(F)(F)C3)cc2)cn1 [Example 68, (2E)-N-(4-((3,3-difluoropyrrolidin-1-yl)methyl)phenyl)-3-(4-(1-methyl-1H-pyrazol-4-yl)pyridin-3-yl)acrylamide] | 99 | 100 | 62
3 | Cn1cc(-c2ccncc2/C=C/C(=O)Nc2ccc3c(c2)OCO3)cn1 [Example 163, (2E)-N-(1,3-benzodioxol-5-yl)-3-(4-(1-methyl-1H-pyrazole-4-yl)pyridin-3-yl)acrylamide] | 96 | 94 | 53
4 | O=C(/C=C/c1cnccc1-c1cnn(C2CC2)c1)Nc1ccc2c(c1)CN(CC(F)(F)F)CC2 [Example 247, (2E)-3-(4-(1-Cyclopropyl-1H-pyrazol-4-yl)pyridin-3-yl)-N-(2-(2,2,2-trifluoroethyl)-1,2,3,4-tetrahydroisoquinolin-7-yl)acrylamide] | 98 | 102 | 63
5 | O=C(/C=C/c1cnccc1-c1cnn(C2CC2)c1)Nc1ccc2c(c1)CN(CC(F)(F)CO)C2 [Example 340, (2E)-3-(4-(1-cyclopropyl-1H-pyrazol-4-yl)pyridin-3-yl)-N-(2-(2,2-difluoro-3-hydroxypropyl)-2,3-dihydro-1H-isoindol-5-yl)acrylamide] | 102 | 96 | 65
6 | COC1CN(Cc2ccc(NC(=O)/C=C/c3cncc(F)c3-c3cnn(C4CC4)c3)c(F)c2)C1 [Example 343, (2E)-3-(4-(1-Cyclopropyl-1H-pyrazol-4-yl)-5-fluoropyridin-3-yl)-N-(2-fluoro-4-((3-methoxyazetidin-1-yl)methyl)phenyl)acrylamide] | 103 | 96 | 63
7 | Cn1cc(-c2ccncc2/C=C/C(=O)Nc2ccc(CC(F)(F)F)cc2)cn1 [Example 276, (2E)-3-(4-(1-methyl-1H-pyrazol-4-yl)pyridin-3-yl)-N-(4-(2,2,2-trifluoroethyl)phenyl)acrylamide] | 99 | 92 | 60
8 | Cn1cc(-c2ccncc2/C=C/C(=O)Nc2ccc3c(c2)CCN3)cn1 [Example 280, (2E)-N-(2,3-dihydro-1H-indol-5-yl)-3-(4-(1-methyl-1H-pyrazol-4-yl)pyridin-3-yl)acrylamide] | 97 | 96 | 58
9 | C[C@@H]1CN(Cc2ccc(NC(=O)/C=C/c3cnccc3-c3cnn(C)c3)cc2)C[C@H](C)O1 [Example 53, (2E)-N-(4-(((2R,65)-2,6-dimethylmorpholin-4-yl)methyl)phenyl)-3-(4-(1-methyl-1H-pyrazol-4-yl)pyridin-3-yl)acrylamide] | 101 | 97 | 58
10 | COC1CN(Cc2ccc(NC(=O)/C=C/c3cncc(F)c3-c3cnn(C4CC4)c3)cc2)C1 [Example 345, (2E)-3-(4-(1-Cyclopropyl-1H-pyrazol-4-yl)-5-fluoropyridin-3-yl)-N-(4-((3-methoxyazetidin-1-yl)methyl)phenyl)acrylamide] | 101 | 100 | 63
11 | CN1CCc2ccc(NC(=O)/C=C/c3cnccc3-c3cnn(C)c3)cc2C1 [Example 212, (2E)-3(4-(1-methyl-1H-pyrazol-4-yl)pyridin-3-yl)-N-(2-methyl-1,2,3,4-tetrahydroisoquinolin-7-yl)acrylamide] | 100 | 98 | 52
12 | Cn1cc(-c2ccncc2/C=C/C(=O)Nc2ccc3c(ccn3C)c2)cn1 [Example 175, (2E)-N-(1-Methyl-1H-indol-5-yl)-3-(4-(1-methyl-1H-pyrazol-4-yl)pyridin-3-yl)acrylamide] | 98 | 99 | 55
13 | O=C(/C=C/c1cnccc1-c1cnsc1)Nc1ccc(CN2CCOCC2)cc1 [Example 145, (2E)-N-(4-(Morpholin-4-ylmethyl)phenyl)-3-(4-(1,2-thiazol-4-yl)pyridin-3-yl)acrylamide] | 90 | 94 | 51
14 | CN(C)CCc1ccc(NC(=O)/C=C/c2cnccc2-c2cnn(C)c2)cc1 [Example 226, (2E)-N-(4-(2-(dimethylamino)ethyl)phenyl)-3-(4-(1-methyl-1H-pyrazol-4-yl)pyridin-3-yl)acrylamide] | 98 | 98 | 66
15 | Cn1cc(-c2ccncc2/C=C/C(=O)Nc2ccc(CCN3CCOCC3)cc2)cn1 [Example 91, (2E)-3-(4-(1-Methyl-1H-pyrazol-4-yl)pyridin-3-yl)-N-(4-(2-(morpholin-4-yl)ethyl)phenyl)acrylamide] | 96 | 101 | 59
16 | O=C(/C=C/c1cnccc1-c1cnn(C2CC2)c1)Nc1ccc2c(ccn2CC(F)(F)F)c1 [Example 266, (2E)-3-(4-(1-Cyclopropyl-1H-pyrazol-4-yl)pyridin-3-yl)-N-(1-(2,2,2-trifluoroethyl)-1H-indol-5-yl)acrylamide] | 99 | 98 | 57
17 | Cn1cc(-c2c(F)cncc2/C=C/C(=O)Nc2ccc(CN3CCOCC3)cc2F)cn1 [Example 260, (2E)-3-(5-Fluoro-4-(1-methyl-1H-pyrazol-4-yl)pyridin-3-yl)-N-(2-fluoro-4-(morpholin-4-ylmethyl)phenyl)acrylamide] | 98 | 99 | 53
18 | COc1ccsc1-c1ccncc1/C=C/C(=O)Nc1ccc(CN2CCOCC2)cc1 [Example 100, (2E)-3-(4-(3-methoxy-2-thienyl)pyridin-3-yl)-N-(4-(morpholin-4-ylmethyl)phenyl)acrylamide] | 97 | 100 | 52
19 | Cn1cc(-c2ccncc2/C=C/C(=O)Nc2ccc(CC(C)(C)O)cc2)cn1 [Example 123, (2E)-N-(4-(2-hydroxy-2-methylpropyl)phenyl)-3-(4-(1-methyl-1H-pyrazol-4-yl)pyridin-3-yl)acrylamide] | 99 | 101 | 62
20 | COc1ncc(-c2ccncc2/C=C/C(=O)Nc2ccc(CN3CCOCC3)cc2)s1 [Example 221, (2E)-3-(4-(2-Methoxy-1,3-thiazol-5-yl)pyridin-3-yl)-N-(4-(morpholin-4-ylmethyl)phenyl)acrylamide] | 99 | 98 | 63
21 | Cn1cc(-c2ccc(NC(=O)/C=C/c3cnccc3-c3cnn(C4CC4)c3)cc2)cn1 [Example 281, (2E)-3-(4-(1-cyclopropyl-1H-pyrazol-4-yl)pyridin-3-yl)-N-(4-(1-methyl-1H-pyrazol-4-yl)phenyl)acrylamide] | 92 | 97 | 58
22 | Cn1cc(-c2ccncc2/C=C/C(=O)Nc2ccc(CN3CCOCC3)c(F)c2)cn1 [Example 249, (2E)-N-(3-fluoro-4-(morpholin-4-ylmethyl)phenyl)-3-(4-(1-methyl-1H-pyrazol-4-yl)pyridin-3-yl)acrylamide] | 99 | 97 | 62
23 | Cn1cc(-c2ccncc2/C=C/C(=O)Nc2ccc(CCC(F)(F)F)cc2)cn1 [Example 124, (2E)-3-(4-(1-methyl-1H-pyrazol-4-yl)pyridin-3-yl)-N-(4-(3,3,3-trifluoropropyl)phenyl)acrylamide] | 98 | 99 | 53
24 | Cn1cnc2ccc(-c3ccncc3/C=C/C(=O)Nc3ccc4c(ccn4CC(F)(F)F)c3)cc21 [Example 298, (2E)-3-(4-(1-methyl-1H-benzimidazol-6-yl)pyridin-3-yl)-N-(1-(2,2,2-trifluoroethyl)-1H-indol-5-yl)acrylamide] | 85 | 84 | 63
25 | Cn1cc(-c2ccncc2/C=C/C(=O)Nc2ccc(Oc3ccncc3)cc2)cn1 [Example 137, (2E)-3-(4-(1-methyl-1H-pyrazol-4-yl)pyridin-3-yl)-N-(4-(pyridin-4-yloxy)phenyl)acrylamide] | 95 | 96 | 54
26 | Cn1cc(-c2ccncc2/C=C/C(=O)Nc2ccc(Cn3cccn3)cc2)cn1 [Example 274, (2E)-3-(4-(1-methyl-1H-pyrazol-4-yl)pyridin-3-yl)-N-(4-(1H-pyrazol-1-ylmethyl)phenyl)acrylamide] | 102 | 97 | 53
27 | Cn1cc(-c2ccncc2/C=C/C(=O)Nc2ccc(CNC3CC3)cc2)cn1 [Example 49, (2E)-N-(4-((cyclopropylamino)methyl)phenyl)-3-(4-(1-methyl-1H-pyrazol-4-yl)pyridin-3-yl)acrylamide] | 95 | 96 | 56
